What all share (test): ABPP chemical proteomics (LC-MS/MS) in HEK293T cells
Holding throughout (format): cell-based

Assay [1] has as its target T1, C21orf33 (Homo sapiens, UniProt P0DPI2).
T1 construct: endogenous in cells; host or cells: HEK293T
T1 sequence (P0DPI2 42-268): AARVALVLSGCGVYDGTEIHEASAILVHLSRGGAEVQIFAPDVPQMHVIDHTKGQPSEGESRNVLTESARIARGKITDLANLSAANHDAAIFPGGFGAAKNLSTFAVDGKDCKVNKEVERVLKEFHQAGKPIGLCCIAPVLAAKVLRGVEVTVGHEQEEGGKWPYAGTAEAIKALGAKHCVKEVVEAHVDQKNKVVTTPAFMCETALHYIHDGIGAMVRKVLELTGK
Here is the method:
(§1) To explore the selectivity of IMP-2587 and IMP-2586 across the whole proteome, we performed quantitative activity-based protein profiling (ABPP) in HEK293T cells following treatment with IMP-2587 or IMP-2586 (Fig. 3a). After ABP incubation, cells were lysed, and probe-labelled proteins were ligated to biotinylated capture reagents.[27] […] USP30 was outcompeted by corresponding parent inhibitors for each ABP (Fig. 5b and d and Tables S3 and S5, ESI ^†), confirming the high potency and rapid engagement of IMP-2587 and IMP-2586 in cells. […] DESI1 and DESI2 are small ubiquitin-related modifier (SUMO) proteases,[3,29–32] and IMP-2587 and IMP-2586 may offer a starting point for future development of DESI ABPs. […]
(§2) d) Live cell probe incubation, lysate click chemistry and precipitation 6-well HEK293T cells were incubated with media containing compounds ABP 2 and ABP 4 at indicated concentrations for 1 h at 37 °C. The cells were washed with PBS and lysed with lysis buffer (50 μL (1% (v/v) Triton X-100, 0.1% (w/v) sodium dodecyl sulfate (SDS), EDTA-free complete protease inhibitor cocktail (1×, Roche) in PBS on ice for 10 min. The lysates were scraped and transferred to corresponding Lo-Bind Eppendorfs. Each lysate was sonicated for 1 minute, and the samples centrifuges at 5,000 x g at 4 °C for 5 minutes to pellet insoluble cellular debris. The supernatant was collected, and protein concentration was determined using the DC Protein Assay (Bio-Rad) as per manufacturer’s instructions, and normalised to lowest concentrated sample (e.g. 1 mg/mL, using lysis buffer). The following “click mixture” was prepared separately, preparing 6 μL for every 100 μL of […]
(§3) Capture reagent (AzRB/AzT for ABP 2, YnT/YnB for ABP 4 10 mM in DMSO, 1 vol; final concentration […]
(§4) CuSO4 (50 mM in water, 2 vol; final concentration in reaction 1 mM)
(§5) TCEP (50 mM in water, 2 vol; final concentration in reaction 1 mM)
(§6) TBTA (10 mM in DMSO, 1 vol; final concentration in reaction 100 µM)
(§7) The click mixture was vortexed and incubated at room temperature for 2 min before 6 μL of the mixture was added to every 100 μL of lysate. The reaction mixtures were shaken at room temperature for 1 h before being quenched with EDTA (500 mM in H2O) to a final concentration of 10 mM.
(§8) Proteins were precipitated by adding H2O (1 vol), MeOH (2 vol) and CHCl3 (0.5 vol), vortexing briefly then centrifuging at 17,000 × g for 5 min. The top H2O/MeOH layer was discarded and the middle layer of protein pellet and lower CHCl3 layer retained. The suspension was washed with MeOH (300 μL), and sonicated to break up the pellet. The proteins were pelleted by centrifugation at 10,000–17000 × g for 5–10 min or until a compact pellet was formed. The protein pellet was washed once more with MeOH (1 mL). The pellet was resuspended by sonicating and completely dissolving in 1% (w/v) SDS in PBS (to 5 mg/mL protein) before being made up to 1 mg/mL protein with PBS. […]
(§9) f) Neutravidin biotin enrichment (Affinity pull-down)
(§10) Click chemistry and precipitation steps were carried out as described in section 3.2.d, on at least 400ug of protein per sample. The pellet was resuspended by sonicating and completely dissolving in 1% (w/v) SDS in HEPES 50 mM pH 8.0, before being made up to 1 mg/mL protein with HEPES 50 mM pH 8.0 to […]
(§11) achieve a final concentration of 0.2% SDS. 20uL of each samples was collected as TL (Total lysate) samples. Pull down of biotinylated proteins was achieved by incubating samples with pre-equilibrated (3x 1 mL washes with 0.2% (w/v) SDS in HEPES 50 mM pH 8 buffer) Pierce™ NeutrAvidin™ Agarose beads for 3 hours at room temperature. NeutrAvidin™ Agarose beads were used in ratio of 1 μL bead resin per 10ug of protein sample. The beads were subsequently washed by moderate shaking for 10 seconds then briefly pelleting by table-top centrifuge then vacuum aspirating the supernatant with fine-end pipette tips (to not disturb the agarose) after collecting 20 µL supernatant as SN (supernatant […]
(§12) ) samples. […]

For assay [2], the target named is T2, ALDH2 (Homo sapiens, UniProt P05091).
T2 construct: endogenous in cells; host or cells: HEK293T
T2 sequence (P05091 18-517): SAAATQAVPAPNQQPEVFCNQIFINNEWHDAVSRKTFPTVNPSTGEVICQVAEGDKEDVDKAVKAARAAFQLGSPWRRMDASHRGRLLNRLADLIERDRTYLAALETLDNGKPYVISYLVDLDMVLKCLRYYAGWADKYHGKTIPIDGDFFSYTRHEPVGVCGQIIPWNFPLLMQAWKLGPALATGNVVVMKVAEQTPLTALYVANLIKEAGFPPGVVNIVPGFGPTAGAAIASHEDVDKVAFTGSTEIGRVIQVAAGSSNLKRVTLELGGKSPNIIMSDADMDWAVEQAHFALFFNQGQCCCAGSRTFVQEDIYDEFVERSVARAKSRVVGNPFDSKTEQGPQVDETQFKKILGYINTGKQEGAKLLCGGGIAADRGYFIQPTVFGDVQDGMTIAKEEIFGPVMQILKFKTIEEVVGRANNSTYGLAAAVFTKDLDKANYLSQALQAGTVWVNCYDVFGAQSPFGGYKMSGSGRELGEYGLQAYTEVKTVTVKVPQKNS
The protocol: as §1, §2, §3, §4, §5, §6, §7, §8, §9, §10, §11, §12

In assay [3] the target is T3, DESI1 (Homo sapiens, UniProt Q6ICB0).
T3 construct: endogenous in cells; host or cells: HEK293T
T3 sequence (Q6ICB0 1-168): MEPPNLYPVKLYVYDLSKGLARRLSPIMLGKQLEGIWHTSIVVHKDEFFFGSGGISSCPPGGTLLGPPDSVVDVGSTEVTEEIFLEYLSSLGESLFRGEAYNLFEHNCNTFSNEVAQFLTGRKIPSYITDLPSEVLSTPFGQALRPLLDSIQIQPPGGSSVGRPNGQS
The protocol:
as §1, §2, §3, §4, §5, §6, §7, §8, §9, §10, §11, §12

[4] abbreviates: IMP-2586 labelling vs DMSO, 30 nM, 10 min, HEK293T (Table S4, Fig.5c).
The mark [5] stands for this setting: IMP-2587 labelling vs DMSO, 30 nM, 10 min, HEK293T (Table S2, Fig.5a).
[6] abbreviates: compound 1 out-competition with IMP-2587 labelling, HEK293T (Table S3, Fig.5b).
The mark [7] stands for this setting: compound 3 out-competition with IMP-2586 labelling, HEK293T (Table S5, Fig.5d).

Structures are written as SMILES.

As for `N#CN1CC[C@@H](NC(=O)c2cc(-c3ccccc3Oc3ccc(N=[N+]=[N-])cc3)n[nH]2)C1` [IMP-2586], the results for the “Difference (log2 fold change of enrichment)” value in assay [1] (setting [4]), in assay [2] (setting [4]) and in assay [3] (setting [4]) were 3.93, 2.13 and 3.04, respectively.

On to `C#Cc1cccc(-c2cc(NC(=O)CC3CCN(C#N)C3)on2)c1` (centres unmarked) [IMP-2587], for which the entries for the “Difference (log2 fold change of enrichment)” value in assay [1] (setting [5]), in assay [2] (setting [5]) and in assay [3] (setting [5]) were 0.92, 3.49 and 3.61, respectively.

As to `N#CN1CC[C@H](CC(=O)Nc2cc(-c3cccc(Cl)c3)no2)C1` [compound 1, reference compound], the “Difference (log2 fold change of enrichment)” value is -3.07 in assay [2] (setting [6]) and -3.45 in assay [3] (setting [6]).

In the case of `N#CN1CC[C@@H](NC(=O)c2cc(-c3ccccc3Oc3ccccc3)n[nH]2)C1` [compound 3, reference compound], the results for the “Difference (log2 fold change of enrichment)” value in assay [1] (setting [7]), in assay [2] (setting [7]) and in assay [3] (setting [7]) were -3.65, -1.64 and -2.81, respectively.

These data come from paper PMC11078216, “Discovery of potent and selective activity-based probes (ABPs) for the deubiquitinating enzyme USP30” (RSC Chemical Biology, 2024).
